Consider one molecule from PMC7920811 (Neoplasia (New York, N.Y.), 2021).

Molecules are shown by their SMILES.

This assay has as its target STAT3 (Homo sapiens, UniProt P40763). Nature of the assay: label-free microscale thermophoresis. The assay is classed as binding. (In MST a laser heats a spot of the sample, and binding alters the fluorescence response.)

Sequence of STAT3 (P40763 2-770): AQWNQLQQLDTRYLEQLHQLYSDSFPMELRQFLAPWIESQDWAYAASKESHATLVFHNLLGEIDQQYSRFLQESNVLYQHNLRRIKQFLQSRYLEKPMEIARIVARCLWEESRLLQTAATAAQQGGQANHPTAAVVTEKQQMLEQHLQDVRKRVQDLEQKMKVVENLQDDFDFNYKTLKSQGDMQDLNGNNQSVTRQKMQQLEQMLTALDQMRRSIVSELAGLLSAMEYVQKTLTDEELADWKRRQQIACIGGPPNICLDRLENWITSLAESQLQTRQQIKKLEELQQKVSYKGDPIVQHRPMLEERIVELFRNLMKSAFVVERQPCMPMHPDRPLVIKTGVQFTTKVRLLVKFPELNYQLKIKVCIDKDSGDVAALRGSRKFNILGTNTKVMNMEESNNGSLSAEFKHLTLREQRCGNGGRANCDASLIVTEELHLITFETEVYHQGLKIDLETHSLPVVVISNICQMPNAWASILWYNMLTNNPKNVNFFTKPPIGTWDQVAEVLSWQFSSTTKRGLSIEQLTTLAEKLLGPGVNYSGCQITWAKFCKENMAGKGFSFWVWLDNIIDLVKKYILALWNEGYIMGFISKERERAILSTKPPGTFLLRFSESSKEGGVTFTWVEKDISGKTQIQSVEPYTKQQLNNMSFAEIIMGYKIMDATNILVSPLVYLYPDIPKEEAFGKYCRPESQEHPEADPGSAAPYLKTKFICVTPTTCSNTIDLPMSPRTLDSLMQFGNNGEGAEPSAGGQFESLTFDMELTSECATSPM

`CC(=O)Nc1ccc(O)cc1` [AAP, acetaminophen]: the Kd was 600 ± 400 nM.

As usually defined, the Kd is the constant that tells how readily two partners part at equilibrium.
